Measurements from PubChem BioAssay AID1963843 (Molecular Pharmacology Branch, DTP, NCI, 2024).

System: 616215-338-R-J1-PDC complex spheroid viability
Test: Anticancer human tumor 616215-338-R-J1-PDC patient-derived colon adenocarcinoma cell line growth inhibition [POLQ]
Settings: for IC50: curve of first compound; for viability, T/C: stronger effect = lower value
Method in brief: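 Patient-derived tumour cells were co-cultured with HUVEC and mesenchymal stem cells as multicellular spheroids at 37 °C. They were treated with POLQ inhibitors (novobiocin, ART-558, RP6685) alone or combined with other agents. Top concentrations were at or near clinical Cmax (otherwise 10 microM; SN-38 at 1 microM), decreasing in half-log steps.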
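Further: spheroids exposed to compounds for one week before readout.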
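Wherever viability, T/C is given: percent viability relative to DMSO vehicle wells taken as 100%.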

With CC(=O)O[C@H]1C(=O)[C@@]2(C)[C@H]([C@H](OC(=O)c3ccccc3)[C@]3(O)C[C@H](OC(=O)[C@H](O)[C@@H](NC(=O)c4ccccc4)c4ccccc4)C(C)=C1C3(C)C)[C@]1(OC(C)=O)CO[C@@H]1C[C@@H]2O + Cc1cccc(N(C)C(=O)C2C(O)CCN2c2nc(C)cc(C(F)(F)F)c2C#N)c1 the IC50 (second compound 0.0316 µM) was under 9.49 nM, the IC50 (second compound 0.1 µM) was under 9.49 nM and the IC50 (second compound 0.316 µM) was under 9.49 nM. It also gave an IC50 (second compound 1 µM) of under 9.49 nM, an IC50 (second compound 3.16 µM) of under 9.49 nM and an IC50 (second compound 10 µM) of under 9.49 nM. For the same compound, the viability, T/C (second compound 0.0316 µM, first compound 0.00949 µM) was 34.7%, the viability, T/C (second compound 0.0316 µM, first compound 0.03 µM) was 20.2% and the viability, T/C (second compound 0.0316 µM, first compound 0.0949 µM) was 20.4%. The viability, T/C (second compound 0.0316 µM, first compound 0.3 µM) was 18.9%, the viability, T/C (second compound 0.0316 µM, first compound 0.949 µM) was 19.3% and the viability, T/C (second compound 0.0316 µM, first compound 3 µM) was 19.1%. The viability, T/C (second compound 0.1 µM, first compound 0.00949 µM) was 31.6%, the viability, T/C (second compound 0.1 µM, first compound 0.03 µM) was 22.5% and the viability, T/C (second compound 0.1 µM, first compound 0.0949 µM) was 17.3%. The viability, T/C (second compound 0.1 µM, first compound 0.3 µM) was 21.5%, the viability, T/C (second compound 0.1 µM, first compound 0.949 µM) was 17.3% and the viability, T/C (second compound 0.1 µM, first compound 3 µM) was 17.4%. For the same compound, the viability, T/C (second compound 0.316 µM, first compound 0.00949 µM) was 39.5%, the viability, T/C (second compound 0.316 µM, first compound 0.03 µM) was 23.8% and the viability, T/C (second compound 0.316 µM, first compound 0.0949 µM) was 22.5%. The viability, T/C (second compound 0.316 µM, first compound 0.3 µM) was 15.8%, the viability, T/C (second compound 0.316 µM, first compound 0.949 µM) was 17.7% and the viability, T/C (second compound 0.316 µM, first compound 3 µM) was 16.4%. The viability, T/C (second compound 1 µM, first compound 0.00949 µM) was 36%, the viability, T/C (second compound 1 µM, first compound 0.03 µM) was 27.6% and the viability, T/C (second compound 1 µM, first compound 0.0949 µM) was 22.1%. The viability, T/C (second compound 1 µM, first compound 0.3 µM) was 13.1%, the viability, T/C (second compound 1 µM, first compound 0.949 µM) was 19% and the viability, T/C (second compound 1 µM, first compound 3 µM) was 18.8%. It also gave a viability, T/C (second compound 3.16 µM, first compound 0.00949 µM) of 40.9%, a viability, T/C (second compound 3.16 µM, first compound 0.03 µM) of 21.6% and a viability, T/C (second compound 3.16 µM, first compound 0.0949 µM) of 23.9%. It also gave a viability, T/C (second compound 3.16 µM, first compound 0.3 µM) of 15.6%, a viability, T/C (second compound 3.16 µM, first compound 0.949 µM) of 21.7% and a viability, T/C (second compound 3.16 µM, first compound 3 µM) of 17.4%. For the same compound, the viability, T/C (second compound 10 µM, first compound 0.00949 µM) was 33.5%, the viability, T/C (second compound 10 µM, first compound 0.03 µM) was 26.9% and the viability, T/C (second compound 10 µM, first compound 0.0949 µM) was 21.2%. For the same compound, the viability, T/C (second compound 10 µM, first compound 0.3 µM) was 14.6%, the viability, T/C (second compound 10 µM, first compound 0.949 µM) was 21.6% and the viability, T/C (second compound 10 µM, first compound 3 µM) was 14.6%.

In the case of CC[C@@]1(O)C(=O)OCc2c1cc1n(c2=O)Cc2cc3c(CN(C)C)c(O)ccc3nc2-1 + Cc1cccc(N(C)C(=O)C2C(O)CCN2c2nc(C)cc(C(F)(F)F)c2C#N)c1, the IC50 (second compound 0.0316 µM) is reported as over 100 nM, the IC50 (second compound 0.1 µM) is reported as over 100 nM and the IC50 (second compound 0.316 µM) is reported as over 100 nM. It also gave an IC50 (second compound 1 µM) of over 100 nM, an IC50 (second compound 3.16 µM) of over 100 nM and an IC50 (second compound 10 µM) of over 100 nM. For the same compound, the viability, T/C (second compound 0.0316 µM, first compound 0.000316 µM) was 96.5%, the viability, T/C (second compound 0.0316 µM, first compound 0.001 µM) was 100% and the viability, T/C (second compound 0.0316 µM, first compound 0.00316 µM) was 97.7%. It also gave a viability, T/C (second compound 0.0316 µM, first compound 0.01 µM) of 101%, a viability, T/C (second compound 0.0316 µM, first compound 0.0316 µM) of 105% and a viability, T/C (second compound 0.0316 µM, first compound 0.1 µM) of 82.5%. For the same compound, the viability, T/C (second compound 0.1 µM, first compound 0.000316 µM) was 99.2%, the viability, T/C (second compound 0.1 µM, first compound 0.001 µM) was 101% and the viability, T/C (second compound 0.1 µM, first compound 0.00316 µM) was 101%. It also gave a viability, T/C (second compound 0.1 µM, first compound 0.01 µM) of 116%, a viability, T/C (second compound 0.1 µM, first compound 0.0316 µM) of 107% and a viability, T/C (second compound 0.1 µM, first compound 0.1 µM) of 79.6%. It also gave a viability, T/C (second compound 0.316 µM, first compound 0.000316 µM) of 114%, a viability, T/C (second compound 0.316 µM, first compound 0.001 µM) of 104% and a viability, T/C (second compound 0.316 µM, first compound 0.00316 µM) of 92.3%. The viability, T/C (second compound 0.316 µM, first compound 0.01 µM) was 114%, the viability, T/C (second compound 0.316 µM, first compound 0.0316 µM) was 96.7% and the viability, T/C (second compound 0.316 µM, first compound 0.1 µM) was 84.3%. The viability, T/C (second compound 1 µM, first compound 0.000316 µM) was 101%, the viability, T/C (second compound 1 µM, first compound 0.001 µM) was 93.5% and the viability, T/C (second compound 1 µM, first compound 0.00316 µM) was 112%. The viability, T/C (second compound 1 µM, first compound 0.01 µM) was 112%, the viability, T/C (second compound 1 µM, first compound 0.0316 µM) was 103% and the viability, T/C (second compound 1 µM, first compound 0.1 µM) was 77.2%. The viability, T/C (second compound 3.16 µM, first compound 0.000316 µM) was 101%, the viability, T/C (second compound 3.16 µM, first compound 0.001 µM) was 94.2% and the viability, T/C (second compound 3.16 µM, first compound 0.00316 µM) was 93.2%. The viability, T/C (second compound 3.16 µM, first compound 0.01 µM) was 101%, the viability, T/C (second compound 3.16 µM, first compound 0.0316 µM) was 103% and the viability, T/C (second compound 3.16 µM, first compound 0.1 µM) was 78.8%. For the same compound, the viability, T/C (second compound 10 µM, first compound 0.000316 µM) was 100%, the viability, T/C (second compound 10 µM, first compound 0.001 µM) was 98.9% and the viability, T/C (second compound 10 µM, first compound 0.00316 µM) was 95.3%. The viability, T/C (second compound 10 µM, first compound 0.01 µM) was 103%, the viability, T/C (second compound 10 µM, first compound 0.0316 µM) was 97.8% and the viability, T/C (second compound 10 µM, first compound 0.1 µM) was 64.4%.
